Consider ten molecules from ChEMBL document CHEMBL1156900, “Synthesis and anti-influenza virus activity of dihydrofuran-fused perhydrophenanthrenes with a benzyloxy-type side-chain” (2010).

The structures appear in SMILES notation. Calls of active or inactive are those of the source. The rule behind the calls is not given here.

The subject of the assay is H3N2 subtype. Description: Antiviral activity against influenza A virus A/Aichi/2/68 (H3N2) infected in MDCK cells at 10 uM by plaque titration assay relative to control. The assay is classed as functional.

As for `N#C[C@]12CCC3(OCCO3)C3=CO[C@H](Cc4cc(OCc5ccccn5)ccc41)[C@@H]32`, the outcome (A/Aichi/2/1968(H3N2)) was Active.

With `N#C[C@]12CCC3(OCCO3)C3=CO[C@H](Cc4cc(OCc5cccnc5)ccc41)[C@@H]32`, the result (A/Aichi/2/1968(H3N2)) was Active.

For `N#C[C@]12CCC3(OCCO3)C3=CO[C@H](Cc4cc(OCc5ccncc5)ccc41)[C@@H]32`, the outcome (A/Aichi/2/1968(H3N2)) was Active.

In turn, `N#C[C@]12CCC3(OCCO3)C3=CO[C@H](Cc4cc(-c5ccccc5)ccc41)[C@@H]32` yielded an Activity of 70%.

For the molecule `N#C[C@]12CCC3(OCCO3)C3=CO[C@H](Cc4cc(OCc5ccc(COc6ccc7c(c6)C[C@H]6OC=C8[C@H]6[C@@]7(C#N)CCC86OCCO6)cc5)ccc41)[C@@H]32`, the outcome (A/Aichi/2/1968(H3N2)) was Active.

Turning to `N#C[C@]12CCC3(OCCO3)C3=CO[C@H](Cc4cc(OC(F)(F)F)ccc41)[C@@H]32`, under “A/Aichi/2/1968(H3N2)”, the outcome was Active.

Consider `N#C[C@]12CCC3(OCCO3)C3=CO[C@H](Cc4cc(OS(=O)(=O)C(F)(F)F)ccc41)[C@@H]32`, for which the outcome (A/Aichi/2/1968(H3N2)) was inactive.

`N#C[C@]12CCC3(OCCO3)C3=CO[C@H](Cc4cc(OCc5ccccc5)ccc41)[C@@H]32`: the Activity was determined as 30%.

`N#C[C@]12CCC3(OCCO3)C3=CO[C@H](Cc4cc(-c5c(F)cc(F)cc5F)ccc41)[C@@H]32` registered an Activity of 70%.

As for `N#C[C@]12CCC3(OCCO3)C3=CO[C@H](Cc4cc(OCc5cc(F)cc(F)c5)ccc41)[C@@H]32`, the Activity is recorded as 30%.
